Literature values in US20110060040A1, “USES OF ACYLOXYALKYL CARBAMATE PRODRUGS OF TRANEXAMIC ACID” (XenoPort, Inc., priority 2009, published 2011).

Key:
[1] = human patients, prodrug given orally
[2] = patients undergoing total knee arthroplasty
[3] = cardiopulmonary bypass surgery, prophylactic administration

| oral bioavailability of tranexamic acid [1] | excretion (in vivo) | fraction of administered tranexamic acid metabolized (in vivo) | volume of distribution (in vivo) [L] | oral bioavailability (oral) | Structure (SMILES) | reduction of total blood loss [2] | reduction of post-operative bleeding [3] |
| --- | --- | --- | --- | --- | --- | --- | --- |
| markedly improved | – | – | – | – | CCOC(=O)OC(C)OC(=O)[C@H]1CC[C@H](CN)CC1 (relative stereo) [Kabi 2161, 1-(ethoxycarbonyl)oxyethyl trans-4-(aminomethyl)-cyclohexanecarboxylate] | – | – |
| – | most is excreted unchanged by the kidney | Only a small fraction | 9 to 12 | ca. 30% | NC[C@H]1CC[C@H](C(=O)O)CC1 [tranexamic acid, trans-4-(aminomethyl)-cyclohexanecarboxylic acid] | up to 50% | 30-40% |
